Results from US11666559B2, “Spiro-lactam compounds, process and uses thereof” (UNIVERSIDADE DE COIMBRA, priority 2017, dated 2023).
Where two headings read alike, the source gives them in different places.

Legend:
HIV-2 = test system: HIV-2
Description: In an embodiment, TZM-bl cells (AIDS Research and Reference Reagent Program, National Institutes of Health, USA) were cultured in complete growth medium that consists of Dulbecco's minimal essential medium (DMEM) supplemented with 10% fetal bovine serum (FBS), 100 U/ml of penicillin-streptomycin (Gibco/Invitrogen, USA), 1 mM of sodium pyruvate (Gibco/Invitrogen, USA), 2 mM of L-glutamine (Gibco/Invitrogen, USA) and 1 mM of non-essential amino acids (Gibco/Invitrogen, USA).
In an embodiment, the primary isolates 93AOHDC249, 93AOHDC250, 01PTHDECJN and 03PTHCC9, used in this study were previously isolated, titrated and characterized for co-receptor usage. HIV reference strain SG3.1 was obtained by transfection of HEK293T cells with pSG3.1 (HIV-1) plasmid using Fugene 6 reagent (Roche, Switzerland) according to manufacturer's instructions.
In an embodiment, the 50% tissue culture infectious dose (TCID50) of the virus was determined in a single-round viral infectivity assay using a luciferase reporter gene assay in TZM-bl cells and calculated using the statistical method of Reed and Muench^27.
In an embodiment, the antiviral activity of the compounds was determined in a single-round assay with TZM-bl cells as previously described ^26. Cells were infected with 200 TCID50 of virus in the presence of serial fold dilutions of the BSS compounds in GM, supplemented with DEAE-dextran (19.7 μg/ml). After 48 h of infection, luciferase expression was quantified with the One-Glow luciferase assay substrate reagent (Promega, USA) according to manufacturer's instructions. Briefly, a volume of reagent equal to that of the culture medium in each well was added. For 96-well plates, typically 100 μl of reagent is added to the cells grown in 100 μl of medium. After an incubation of 3 minutes at room temperature to allow complete cell lysis luminescence was measured in Tecan Infinite M200. Background luminescence was measured by using control wells that contained only target cells and GM. Maraviroc (CCR5 antagonist), T1249 (fusion inhibitor) and AMD3100 (CXCR4 antagonist) were used as positive controls of the antiviral activity. At least two independent experiments were performed for each analysis and each assay was set up in triplicate wells.
In an embodiment, dose-response curves were estimated from the percentage of inhibition of infection (y-axis) against logo of concentration of each compound (x-axis) using the sigmoidal dose-response equation (variable slope) in GraphPad Prism version 5.00 for Windows (GraphPad Software, San Diego Calif. USA, www.graphpad.com). IC50 and IC90 values were determined from this curve. IC50 and IC90 values correspond to the concentration of compound that inhibits viral replication in 50% and 90%, respectively.

TZM-bl cells = test: Cellular viability assay (alamarBlue) in TZM-bl cells
Excerpt: In an embodiment, the cellular cytotoxicity of 17 spiro-β-lactams was investigated in TZM-bl cells using the AlamarBlue assay as recommended by the manufacturer (Invitrogen, USA). TZM-bl, previously designated JC53-bl (clone 13) is a HeLa cell line. The parental cell line (JC.53) stably expresses large amounts of CD4, CCR5 and CXCR4. The TZM-bl cell line was generated from JC.53 cells by introducing separate integrated copies of the luciferase and […] genes under control of the HIV-1 promoter. The TZM-bl cell line is highly sensitive to infection with diverse isolates of HIV.
In an embodiment, the cellular viability assay was carried out as follows: the potential in vitro cytotoxicity of all BSS compounds was evaluated in TZM-bl cells. TZM-bl cells (10000 cells/well in 96-well plates) were incubated in absence or presence of serial-two-fold dilutions of the compounds in growth medium (GM), with starting concentration of 100 μg/ml and a final concentration of 0.781 μg/ml. After 48 hours, cell viability was examined with alamarBlue reagent (Invitrogen, USA) according to manufacturer's instructions. Briefly, 10 μl of alamarBlue reagent was added to each well. After 4 hours at 37° C., the fluorescence was measured in Tecan Infinite M200 (excitation wavelength 550 nm and emission wavelength 600 nm).
In an embodiment, at least two independent experiments have been performed for each cytotoxicity analysis.
In an embodiment, for each assay there were medium controls (only growth medium), cell controls (cells without test compound) and cytotoxicity controls (a compound that kill cells—SDS).

[1] = test system: Enterococcus faecalis ATCC 29212; test: Anti-bacterial activity, agar diffusion method; type: cell-based; conditions: at the concentration of 1 mg/ml
Description: (§1) In an embodiment, anti-bacterial activity of the compounds now disclosed was determined according to CLSI guidelines. The following bacteria were used: reference strains E. coli ATCC 10536, Staphylococcus aureus ATCC 6538, Bacillus subtilis ATCC 6633 and Enterococcus faecalis ATCC 29212; clinical strains of E. coli and Pseudomonas aeruginosa isolated in our laboratory; and strains of Lactobacillus rhamnosus and Lactobacillus plantarum also isolated in our laboratory. The Minimum Inhibitory Concentration (MIC) was determined by the agar diffusion method, in plates of Mueller-Hinton agar or Rogosa agar (for Lactobacilli). Briefly, 10^8 cfu/ml bacterial suspensions were prepared in sterile water and spread in the culture media. Sterile disks containing different concentrations of P3 were placed on the inoculated surface. Plates were incubated at 37° C. for 24 h or 48 h. Lactobacilli were incubated at microaerophilic conditions. A negative control made of sterile water was used. Disks of amoxicillin and imipenem were used as positive controls.

[2] = test system: Escherichia coli (Clinical strain); test: Anti-bacterial activity, agar diffusion method; type: cell-based; conditions: at the concentration of 1 mg/ml
Description: as §1

[3] = test system: Escherichia coli ATCC 10536; test: Anti-bacterial activity, agar diffusion method; type: cell-based; conditions: at the concentration of 1 mg/ml
Description: as §1

Lactobacillus plantarum = test: Anti-bacterial activity, agar diffusion method; type: cell-based; conditions: at the concentration of 1 mg/ml
Description: as §1

Lactobacillus rhamnosus = test: Anti-bacterial activity, agar diffusion method; type: cell-based; conditions: at the concentration of 1 mg/ml
Description: as §1

[4] = test system: Pseudomonas aeruginosa (Clinical strain); test: Anti-bacterial activity, agar diffusion method; type: cell-based; conditions: at the concentration of 1 mg/ml
Description: as §1

[5] = test system: Staphylococcus aureus ATCC 6538; test: Anti-bacterial activity, agar diffusion method; type: cell-based; conditions: at the concentration of 1 mg/ml
Description: as §1

[6] = test system: Bacillus subtillis ATCC 6633; test: Anti-bacterial activity, agar diffusion method; type: cell-based, Bacillus subtilis; conditions: at the concentration of 1 mg/ml
Description: as §1

[7] = 03PTHCC19, CCR5 tropic HIV-2 isolate, TZM-bl cells, wa = without antiviral activity
[8] = 03PTHCC19, CCR5 tropic HIV-2 isolate, wa = without antiviral activity
[9] = HIV-2 primary isolate 00PTHCC20, X4, resistant to ABC, ZDV, d4T, ddl, LPV
[10] = HIV-2 primary isolate 00PTHDECT, R5/X4, resistant to DTG
[11] = HIV-2 primary isolate 03PTHCC20, X4, resistant to ABC, ZDV, d4T, ddl, LPV
[12] = HIV-2 primary isolate 03PTHSM9, X4, resistant to SQV, LPV, DRV and TAF
[13] = HIV-2 primary isolate 10PTHSJIG, R5, resistant to RAL, DTG, LPV, SQV, DRV and all NRTIs
[14] = HIV-2 primary isolate 15PTHCEC, X4, resistant to RAL, DTG, LPV, SQV, DRV, ABC, ddl, TDF, TAF, 3TC, d4T and FTC
[15] = HIV-2 primary isolate 15PTHSJIG, R5, resistant to RAL, DTG, 3TC and FTC
[16] = Table 3, HIV-2 isolate 03PTHCC19, R5, sensitive (control isolate), TZM-bl cells

| Structure (SMILES) | anti-HIV activity against HIV-2 (in words) (HIV-2) | IC50 (HIV-2; [7]) | IC90 (HIV-2; [7]) | MPI (maximum percentage of inhibition) (HIV-2; [8]) | inhibitory activity [1] | inhibitory activity [2] | inhibitory activity [3] | inhibitory activity (Lactobacillus plantarum) | inhibitory activity (Lactobacillus rhamnosus) | inhibitory activity [4] | inhibitory activity [5] | inhibitory activity [6] | other results |
| --- | --- | --- | --- | --- | --- | --- | --- | --- | --- | --- | --- | --- | --- |
| COC(=O)C1=C[C@@]2(N=N1)C(=O)N1[C@@H](C(=O)O)C(C)(C)S[C@@H]12 [BSS-593, (2,3′R,5R)-5′-(methoxycarbonyl)-3,3-dimethyl-7-oxo-4-thia-1-azaspiro[bicyclo[3.2.0]heptane-6,3′-pyrazole]-2-carboxylic acid] | only active against HIV-1 | wa | wa | wa | no inhibitory activity | no inhibitory activity | no inhibitory activity | no inhibitory activity | no inhibitory activity | no inhibitory activity | no inhibitory activity | no inhibitory activity | CC50 (TZM-bl cells; Table 2, TZM-bl cells, 48 hours, alamarBlue): 158000 nM; CC50 (TZM-bl cells; read-out: CC50 (cytotoxic concentration 50%), Table 1, TZM-bl cells, 48 hours, alamarBlue): 158000 nM |
| CC1(C)S[C@H]2N(C(=O)[C@]23CC=C(C(=O)OCc2ccccc2)[C@@H]3C(=O)c2ccccc2)[C@H]1C(=O)OC(c1ccccc1)c1ccccc1 [BSS-730A] | potent activity | 5 nM | 145 nM | 99% | no inhibitory activity | no inhibitory activity | no inhibitory activity | no inhibitory activity | no inhibitory activity | no inhibitory activity | no inhibitory activity | no inhibitory activity | TI (in vitro therapeutic index, CC50/IC50) (HIV-2; 03PTHCC19, CCR5 tropic HIV-2 isolate): 14029.58; inhibition (HIV-2; HIV-2, concentration of 15.21 μM): about 100%; IC50 (HIV-2; [9]): 18 nM; IC90 (HIV-2; [9]): 73 nM; IC50 (HIV-2; [10]): 23 nM; IC90 (HIV-2; [10]): 57 nM; IC50 (HIV-2; [11]): 19 nM; IC90 (HIV-2; [11]): 95 nM; IC50 (HIV-2; [12]): 16 nM; IC90 (HIV-2; [12]): 116 nM; IC50 (HIV-2; [13]): 12 nM; IC90 (HIV-2; [13]): 32 nM; IC50 (HIV-2; [14]): 17 nM; IC90 (HIV-2; [14]): 51 nM; IC50 (HIV-2; [15]): 18 nM; IC90 (HIV-2; [15]): 56 nM; IC50 (HIV-2; [16]): 8 nM; IC90 (HIV-2; [16]): 64 nM; CC50 (TZM-bl cells): 76800 nM |
